Reference: patent US20210353701A1, “ULTRAVIOLET LIGHT-INDUCED INFLAMMATION SUPPRESSING AGENT COMPRISING ALTERNATIVE AUTOPHAGY INDUCING AGENT” (Shiseido Company, Ltd., priority 2018, published 2021)

Tests used:
[1] = test system: NHEK cells; assay: IL-1β production after ultraviolet irradiation in siRNA-treated NHEK cells (ELISA); assay type: cell-based, human; settings: siRNA 200 nM; UV 290 to 315 nm, 15 mJ/cm^2; culture supernatant after 48 hours
Method: (§1) An Amaxa Human Keratinocyte Nucleofector Kit (Lonza) was used to transfect NHEK cells (8.0×10^5 cells) with siRNA to a final concentration of 200 nM. The knockdown efficiency was confirmed by the mRNA expression level of Atg5, Atg7 and Beclin1 using an RT-PCR method (FIGS. 2A, B and C). The RT-PCR primers used were primers by Sigma-Aldrich, and GAPDH (Sigma-Aldrich) was used as an internal standard for standardization of the expression levels.
The siRNA-treated NHEK cells were seeded into a 6-well plate and cultured for 24 hours. The medium was then discarded, PBS was exchanged, and irradiation was carried out with ultraviolet rays (290 to 315 nm) at a radiation intensity of 15 mJ/cm^2. Following ultraviolet irradiation, the medium was again exchanged and culturing was continued for 48 hours to obtain a culture supernatant. The IL-1β concentration of the obtained culture supernatant was evaluated using a Quantikine Human IL-1β ELISA Kit (R&D co.) (FIGS. 3A, B and C). Student's t-test was used as the statistical significance test.

[2] = test system: Beclin1; assay: siRNA knockdown efficiency by RT-PCR, Beclin1; assay type: cell-based, human; settings: siRNA 200 nM in NHEK cells, GAPDH internal standard
Method: as §1

[3] = test system: Atg5; assay: siRNA knockdown efficiency by RT-PCR, Atg5; assay type: cell-based, human; settings: siRNA 200 nM in NHEK cells, GAPDH internal standard
Method: as §1

[4] = test system: Normal human epidermal keratinocytes (NHEK); assay: IL-1β production after ultraviolet irradiation in NHEK treated with autophagy inhibitor or inducing agent (ELISA); assay type: cell-based; settings: 3-MA 1 mM; UV 290 to 315 nm, 20 mJ/cm^2; culture supernatant after 48 hours
Method: Normal human epidermal keratinocytes (NHEK) (Kurabo Industries, Ltd.) were seeded in a 6-well plate and cultured to subconfluence using epidermal keratinocyte growth medium (EpiLife-KG2; Gibco Co). The medium was then exchanged with medium containing 3-methyladenine (3-MA) (by R&D Co., final concentration: 1 mM), as a known autophagy inhibitor and medium containing rapamycin (by Enzo Life Science, final concentration: 0.5 μM) as a known autophagy inducing agent, and culturing was continued for 3 hours. After culturing, the medium was discarded, PBS was added and irradiation was carried out with ultraviolet rays (290 to 315 nm) at a radiation intensity of 20 mJ/cm^2. Following ultraviolet irradiation, culturing was continued under the medium conditions described above including 3-MA or rapamycin, and after 48 hours the culture supernatant of each was obtained. The IL-1β concentration of the obtained culture supernatant was evaluated using a Quantikine Human IL-1β ELISA Kit (R&D co.) (FIGS. 1A and B). Statistical significance testing was conducted using Student's or Welch's t test.

[5] = test system: Atg7; assay: siRNA knockdown efficiency by RT-PCR, Atg7; assay type: cell-based, human; settings: siRNA 200 nM in NHEK cells, GAPDH internal standard
Method: as §1

| Molecule | IL-1β production induced by ultraviolet ray [1] | Beclin1 expression (mRNA) [2] | Atg5 expression (mRNA) [3] | IL-1β concentration after ultraviolet irradiation, increase [4] | Atg7 expression (mRNA) [5] |
| --- | --- | --- | --- | --- | --- |
| Beclin1-targeted siRNA: siRNA for Beclin1 purchased from Invitrogen, SEQ ID NO: 5 and 6 (chain 1 CCAAUAAGAUGGGUCUGAAAUUUCA; chain 2 UGAAAUUUCAGACCCAUCUUAUUGG; listed as RNA, chemistry not given here) | significantly increased | suppressed | – | – | – |
| Atg5-targeted siRNA: siRNA for Atg5 purchased from Invitrogen, SEQ ID NO: 1 and 2 (chain 1 GGUUUGGACGAAUUCCAACUUGUUU; chain 2 AAACAAGUUGGAAUUCGUCCAAACC; listed as RNA, chemistry not given here) | unchanged | – | suppressed | – | – |
| Cn1cnc(N)c2ncnc1-2 [3-methyladenine] | – | – | – | approximately 3 fold | – |
| Atg7-targeted siRNA: siRNA for Atg7 purchased from Invitrogen, SEQ ID NO: 3 and 4 (chain 1 GCCGUCAUUGCUGCAAGCAAGAGAA; chain 2 UUCUCUUGCUUGCAGCAAUGACGGC; listed as RNA, chemistry not given here) | unchanged | – | – | – | suppressed |
